# Measured values reported in patent publication US20250134913A1, “ORAL DOSAGE FORMS OF TRβ AGONIST VK2809 FOR THE TREATMENT OF LIVER DISORDERS AND METHODS OF PREPARING THE SAME” (Viking Therapeutics, Inc., priority 2022, published 2025).
# What was measured:
# Format in all cases: physicochemical
# physchem = experiment: physchem
# Procedure: The amorphous solubility of amorphous Compound 1 was determined by slow addition of the API from an organic stock solution into the aqueous medium of interest. When the amorphous solubility was reached, a drug rich phase formed and was measured by detection by scattering of UV/Visible light and/or by dynamic light scattering (DLS).
# The solubility of amorphous Compound 1 was evaluated in PBS at pH 6.5 alone and with 0.5% simulated intestinal fluid (SIF). […] The onset of scattering in the SIF containing media occurred after 180-210 μg/mL Compound 1. […] This is consistent with the initial solubility testing where the crystalline solubility in PBS in the absence of bile salts is exceedingly low.
# [1] = Closed stability packaging study of PVP-VA SDDs by HPLC; conditions: Stored at Room Temp.
# Procedure: Chemical stability of PVP-VA-containing SDDs of Compound 1 under closed conditions was evaluated by HPLC using the method provided herein in Table 4.
# [2] = Stability study of tablet formulations; conditions: Stored at Room Temp.
# Procedure: Tablet formulations were subjected to a stability study. Tablets were packaged in heat sealed HDPE bottles with minimal headspace and stored in temperature-controlled stability chambers at 50° C., 40° C., and 25° C., and 5° C. Humidity in the chambers was either controlled or allowed to be at ambient humidity. The conditions are listed for each particular formulation in Table 11 below.
# [3] = Gastric-to-intestinal buffer (G-IB) transfer non-sink dissolution test
# Procedure: The SDDs were evaluated in a non-sink dissolution test designed to monitor dissolution rate, as well as inhibition of crystallization, on transfer from simulated gastric to simulated intestinal media. For the gastric-to-intestinal buffer (G-IB) transfer dissolution test, pH 2 (“gastric”; “G”) media was added to each sample at a target dose concentration of 1000 μg Compound 1/mL. After 30 minutes of exposure to gastric media, concentrated simulated intestinal buffer was added to reach a final composition of 0.5% SIF in PBS, pH 6.5 at half the dose concentration (500 μg Compound 1/mL). This dose concentration was selected at twice the estimated amorphous solubility in an attempt to discriminate on dissolution rate and sustainment of supersaturation simultaneously. The concentration was monitored by UV fiber optic probes in situ (stir rate: 100 revolutions per minute) as well as being assessed by either microcentrifugation (15,800×g) or ultracentrifugation (300,000×g). The microcentrifuge separated the precipitate (undissolved drug) and total solubilized drug. Total solubilized drug consists of three solubilized species: freely solubilized drug (“free drug”), drug associated with bile salt micelles (“micelle bound drug”), and drug in small aggregate roughly 50-300 nm in size (“colloidal drug”). The ultracentrifuge further separates the colloidal drug and the supernatant contains only free drug and micelle bound drug. These three species have different activities in vivo and can be used to help differentiate formulations. Free drug is the smallest species and is the only species considered to partition directly into the cell membrane of the epithelium. Micelle bound drug can cross the unstirred mucous boundary layer and source free drug once a concentration gradient has been created by freely solubilized drug being absorbed. Finally, the drug-polymer colloids are a source of rapidly dissolving drug and may, in some cases, penetrate the unstirred mucous boundary layer (Stewart et al. Mol. Pharmaceutics, 2017, 12, 2437-2449)
# All SDD formulations containing enteric polymers reached the amorphous solubility in intestinal buffer within 10 minutes. […] The exact reason for this shift is currently unknown. It may be attributable to detector saturation, arising from the undissolved solids, or a specific interaction between the drug and polymer in solution.
# [4] = Open stability of spray dried dispersions by HPLC; conditions: Stored at Room Temp.
# Procedure: The stability samples were tested using H-PLC using the method in Table 4.
# The stability samples were tested for assay and related substances. […] This is mainly due to an API process-related impurity.
# [5] = Closed stability packaging study of spray dried dispersions by HPLC; conditions: Stored at Room Temp.
# Procedure: Due to the extensive degradation observed after 2 weeks at 40° C./75% RH open, a closed with desiccant condition stability study was initiated for Compound 1 SDDs. Samples were evaluated for stability at 2 weeks, 6 weeks, and 3 months when stored in 4 mL scintillation vials and sealed in 60 cc HDPE bottles with heat induction sealing and 0.5 g desiccant.
# Chemical stability of Compound 1 SDDs after 2 weeks under closed conditions was evaluated by HPLC using the method provided herein in Table 4. […] All SDDs containing cellulosic polymers show the same growth of an impurity after 2 weeks at 40/75 closed. Upon closer inspection, this impurity is present in the in-going API at a level that was below the threshold used for integration. […] Further evidence of unknown degradants that may form during manufacture and co-elute with known synthetic impurities was observed. Closed stability degradation data at two weeks is provided in Table 6, while closed stability degradation data at six weeks is provided in Table 7. Additionally, no changes in particle morphology and crystallinity for the SDDs after 6 weeks at 40° C./75% RH were observed.
# [6] = Equilibrium solubility of crystalline Compound 1 (supernatant concentration after ultracentrifugation); conditions: 37° C.
# Description: Experimental values for solubility, listed in Table 2, were obtained by measuring supernatant concentrations after centrifugation at 386,000×g.
compound,measurement,setting,value
Cc1cc(OC[P@@]2(=O)OCC[C@@H](c3cccc(Cl)c3)O2)cc(C)c1Cc1ccc(O)c(C(C)C)c1 [Compound 1],solubility,"physchem; 37 °C, pH 6.5, fassif, kinetic from dmso stock",180 to 210 µg/mL
same,Amorphous solubility behaviour,physchem; pH 6.5,precipitated as soon as the stock solution was introduced to the medium
same,Compound 1 Relative abundance,[1],97.54%
same,Impurities Relative abundance,[1],2.33%
same,Compound 1 Relative abundance,[2]; 2 month analysis,97.22%
same,Impurities Relative abundance,[2]; 2 month analysis,2.78%
same,Compound 1 Relative abundance,[2]; 3 month analysis,97.45%
same,Impurities Relative abundance,[2]; 3 month analysis,2.55%
same,"Concentration, IB 10 min, micro","[3]; 0.5% SIF in PBS pH 6.5, 10 min, microcentrifuge, dose 500 μg/mL",39 μg Compound 1/mL
same,"Concentration, IB 10 min, ultra","[3]; 0.5% SIF in PBS pH 6.5, 10 min, ultracentrifuge, dose 500 μg/mL",49 μg Compound 1/mL
same,"Concentration, IB 90 min, micro","[3]; 0.5% SIF in PBS pH 6.5, 90 min, microcentrifuge, dose 500 μg/mL",88 μg Compound 1/mL
same,"Concentration, IB 90 min, ultra","[3]; 0.5% SIF in PBS pH 6.5, 90 min, ultracentrifuge, dose 500 μg/mL",88 μg Compound 1/mL
same,"Concentration, G 20 min, micro","[3]; gastric media pH 2, 20 min, microcentrifuge, dose 1000 μg/mL",0 μg Compound 1/mL
same,Compound 1 Relative abundance,[4],97.61%
same,Impurities Relative abundance,[4],2.47%
same,Compound 1 Relative abundance,[5]; 2 week analysis,97.07%
same,Impurities Relative abundance,[5]; 2 week analysis,2.95%
same,Compound 1 Relative abundance,[5]; 6 week analysis,97.70%
same,Impurities Relative abundance,[5]; 6 week analysis,2.33%
same,Ultracentrifuge Concentration,"[6]; 0.01N HCl, 90 min",<0.05 μg Compound 1/mL
same,Ultracentrifuge Concentration,"[6]; 0.01N HCl, 20 hours",<0.05 μg Compound 1/mL
same,Ultracentrifuge Concentration,"[6]; 0.5% Simulated intestinal fluid (SIF) in PBS, pH 6.5, 90 min",92 μg Compound 1/mL
same,Ultracentrifuge Concentration,"[6]; 0.5% Simulated intestinal fluid (SIF) in PBS, pH 6.5, 20 hours",87 μg Compound 1/mL
same,Ultracentrifuge Concentration,"[6]; PBS, pH 6.5, 90 min",<0.05 μg Compound 1/mL
same,Ultracentrifuge Concentration,"[6]; PBS, pH 6.5, 20 hours",0.6 μg Compound 1/mL
